Legend:
[1] = tested on: barnyardgrass; test: Test B flooded paddy test; format: in vivo, Echinochloa crus-galli; details: 500 g ai/ha, Flood; scale of 0 to 100 where 0 is no effect and 100 is complete control
In short: (§1)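 Paddy-water application at a 3 cm flood, young plants having two leaves. Water level maintained; greenhouse, 13–15 days; visual 0–100 control rating.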

[2] = tested on: nutsedge, yellow; test: Test C pre-/postemergence herbicide test; format: in vivo, Cyperus esculentus
In short: (§2)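 Visual rating, 0 (no effect) to 100 (complete control), versus untreated controls after 13 to 15 days in the greenhouse. Pre: seeds in loam/sand, sprayed at planting. Post: 1- to 4-leaf plants (2 to 18 cm) in peat-based mix. Compounds in non-phytotoxic solvent plus surfactant.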

[3] = tested on: johnsongrass; test: Test C pre-/postemergence herbicide test; format: in vivo, Sorghum halepense
In short: as §2

[4] = tested on: sedge, umbrella; test: Test B flooded paddy test; format: in vivo, Cyperus difformis; details: 500 g ai/ha, Flood; scale of 0 to 100 where 0 is no effect and 100 is complete control
In short: as §1

[5] = tested on: oilseed rape; test: Test C pre-/postemergence herbicide test; format: in vivo, Brassica napus
In short: as §2

[6] = tested on: ducksalad; test: Test B flooded paddy test; format: in vivo, Heteranthera limosa; details: 500 g ai/ha, Flood; scale of 0 to 100 where 0 is no effect and 100 is complete control
In short: as §1

[7] = tested on: ragweed; test: Test C pre-/postemergence herbicide test; format: in vivo, Ambrosia elatior
In short: as §2

[8] = tested on: wheat; test: Test A pre-/postemergence herbicide test; format: in vivo, Triticum aestivum; details: Postemergence
In short: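 Seeds sown in loam soil/sand blend received a preemergence directed soil spray of test chemical in non-phytotoxic solvent with surfactant; postemergence plants (2–10 cm, one- to two-leaf stage) were sprayed with the same formulation. After about 10 days in greenhouse, injury was rated visually versus untreated controls, 0 (no effect) to 100 (complete control).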

[9] = tested on: soybean; test: Test C pre-/postemergence herbicide test; format: in vivo, Glycine max
In short: as §2

[10] = tested on: corn; test: Test C pre-/postemergence herbicide test; format: in vivo, Zea mays
In short: as §2

[11] = tested on: ryegrass, Italian; test: Test C pre-/postemergence herbicide test; format: in vivo, Lolium multiflorum
In short: as §2

[12] = tested on: rice; test: Test B flooded paddy test; format: in vivo, Oryza sativa; details: 500 g ai/ha, Flood; scale of 0 to 100 where 0 is no effect and 100 is complete control
In short: as §1

[13] = tested on: pigweed; test: Test C pre-/postemergence herbicide test; format: in vivo, Amaranthus retroflexus
In short: as §2

[14] = Postemergence, 31 g ai/ha, scale 0 to 100 (0 no effect, 100 complete control)
[15] = Postemergence, 62 g ai/ha, scale 0 (no effect) to 100 (complete control)
[16] = Postemergence, 125 g ai/ha, scale 0 to 100 (0 no effect, 100 complete control)
[17] = Postemergence, 250 g ai/ha, scale 0 to 100 (0 no effect, 100 complete control)
[18] = Preemergence, 31 g ai/ha, scale 0 to 100, 0 is no effect and 100 is complete control
[19] = Preemergence, 62 g ai/ha, scale 0 to 100
[20] = Preemergence, 125 g ai/ha, scale 0 to 100 (0 no effect, 100 complete control)
[21] = Preemergence, 62 g ai/ha, scale 0 to 100 (0 no effect, 100 complete control)
[22] = Preemergence, 125 g ai/ha, scale 0 to 100

O=C1NCC(c2ccc(F)cc2)C1C(=O)Nc1cccc(F)c1F (racemic) [Compound 119]
Plant response rating, Barnyardgrass [1]: 80 | Plant response rating, Nutsedge, Yellow [2, 14]: 0 | Plant response rating, Nutsedge, Yellow [2, 15]: 0 | Plant response rating, Nutsedge, Yellow [2, 16]: 0 | Plant response rating, Nutsedge, Yellow [2, 17]: 0 | Nutsedge, Yellow plant response rating [2, 18]: 0 | Plant response rating, Nutsedge, Yellow [2, 19]: 0 | Plant response rating, Nutsedge, Yellow [2, 20]: 0 | Plant response rating (scale of 0 to 100), Nutsedge, Yellow ([2]; Preemergence, 250 g ai/ha): 0 | Plant response rating, Johnsongrass [3, 14]: 0 | Plant response rating, Johnsongrass [3, 15]: 0 | Plant response rating, Johnsongrass [3, 16]: 0 | Plant response rating, Johnsongrass [3, 17]: 5 | Johnsongrass plant response rating [3, 18]: 0 | Plant response rating, Johnsongrass [3, 19]: 0 | Plant response rating, Johnsongrass [3, 20]: 30 | Plant response rating (scale of 0 to 100), Johnsongrass ([3]; Preemergence, 250 g ai/ha): 70 | Plant response rating, Sedge, Umbrella [4]: 0 | Plant response rating, Oilseed Rape [5, 14]: 0 | Plant response rating, Oilseed Rape [5, 15]: 0 | Plant response rating, Oilseed Rape [5, 16]: 0 | Plant response rating, Oilseed Rape [5, 17]: 5 | Oilseed Rape plant response rating [5, 18]: 0 | Plant response rating, Oilseed Rape [5, 19]: 5 | Plant response rating, Oilseed Rape [5, 20]: 80 | Plant response rating (scale of 0 to 100), Oilseed Rape ([5]; Preemergence, 250 g ai/ha): 80 | Plant response rating, Ducksalad [6]: 100 | Plant response rating, Ragweed [7, 14]: 20 | Plant response rating, Ragweed [7, 15]: 0 | Plant response rating, Ragweed [7, 16]: 45 | Plant response rating, Ragweed [7, 17]: 25 | Ragweed plant response rating [7, 18]: 60 | Plant response rating, Ragweed [7, 19]: 35 | Plant response rating, Ragweed [7, 20]: 75 | Plant response rating (scale of 0 to 100), Ragweed ([7]; Preemergence, 250 g ai/ha): 80 | Plant response rating, Wheat ([8]; 125 g ai/ha, 0 to 100 scale, 0 no effect, 100 complete control): 20 | Wheat plant response rating (0 to 100 scale, 0 is no effect, 100 is complete control) ([8]; 500 g ai/ha): 70 | Plant response rating, Soybean [9, 14]: 5 | Plant response rating, Soybean [9, 15]: 5 | Plant response rating, Soybean [9, 16]: 0 | Plant response rating, Soybean [9, 17]: 5 | Soybean plant response rating [9, 18]: 0 | Plant response rating, Soybean [9, 19]: 20 | Plant response rating, Soybean [9, 20]: 0 | Plant response rating (scale of 0 to 100), Soybean ([9]; Preemergence, 250 g ai/ha): 0 | Plant response rating, Corn [10, 14]: 0 | Plant response rating, Corn [10, 15]: 0 | Plant response rating, Corn [10, 16]: 0 | Plant response rating, Corn [10, 17]: 5 | Corn plant response rating [10, 18]: 0 | Plant response rating, Corn [10, 19]: 0 | Plant response rating, Corn [10, 20]: 15 | Plant response rating (scale of 0 to 100), Corn ([10]; Preemergence, 250 g ai/ha): 45 | Plant response rating, Ryegrass, Italian [11, 14]: 0 | Plant response rating, Ryegrass, Italian [11, 15]: 0 | Plant response rating, Ryegrass, Italian [11, 16]: 0 | Plant response rating, Ryegrass, Italian [11, 17]: 5 | Ryegrass, Italian plant response rating [11, 18]: 0 | Plant response rating, Ryegrass, Italian [11, 19]: 15 | Plant response rating, Ryegrass, Italian [11, 20]: 30 | Plant response rating (scale of 0 to 100), Ryegrass, Italian ([11]; Preemergence, 250 g ai/ha): 40 | Plant response rating, Rice [12]: 10 | Plant response rating, Pigweed [13, 14]: 10 | Plant response rating, Pigweed [13, 15]: 10 | Plant response rating, Pigweed [13, 16]: 15 | Plant response rating, Pigweed [13, 17]: 25 | Pigweed plant response rating [13, 18]: 30 | Plant response rating, Pigweed [13, 19]: 60 | Plant response rating, Pigweed [13, 20]: 75 | Plant response rating (scale of 0 to 100), Pigweed ([13]; Preemergence, 250 g ai/ha): 85

O=C1NCC(c2cccc(C(F)(F)F)c2)C1C(=O)Nc1ccccc1Cl (centres unmarked) [Compound 312]
Plant response rating, Barnyardgrass [1]: 75 | Plant response rating, Nutsedge, Yellow [2, 14]: 0 | Plant response rating, Nutsedge, Yellow [2, 15]: 0 | Plant response rating, Nutsedge, Yellow [2, 16]: 0 | Plant response rating, Nutsedge, Yellow [2, 17]: 0 | Nutsedge, Yellow plant response rating [2, 18]: 0 | Nutsedge, Yellow plant response rating [2, 21]: 35 | Plant response rating, Nutsedge, Yellow [2, 22]: 0 | Plant response rating (scale of 0 to 100), Nutsedge, Yellow ([2]; Preemergence, 250 g ai/ha): 0 | Plant response rating, Johnsongrass [3, 14]: 0 | Plant response rating, Johnsongrass [3, 15]: 0 | Plant response rating, Johnsongrass [3, 16]: 25 | Plant response rating, Johnsongrass [3, 17]: 0 | Johnsongrass plant response rating [3, 18]: 30 | Johnsongrass plant response rating [3, 21]: 50 | Plant response rating, Johnsongrass [3, 22]: 80 | Plant response rating (scale of 0 to 100), Johnsongrass ([3]; Preemergence, 250 g ai/ha): 85 | Plant response rating, Sedge, Umbrella [4]: 0 | Plant response rating, Oilseed Rape [5, 14]: 0 | Plant response rating, Oilseed Rape [5, 15]: 0 | Plant response rating, Oilseed Rape [5, 16]: 0 | Plant response rating, Oilseed Rape [5, 17]: 0 | Oilseed Rape plant response rating [5, 18]: 0 | Oilseed Rape plant response rating [5, 21]: 0 | Plant response rating, Oilseed Rape [5, 22]: 15 | Plant response rating (scale of 0 to 100), Oilseed Rape ([5]; Preemergence, 250 g ai/ha): 30 | Plant response rating, Ducksalad [6]: 100 | Plant response rating, Ragweed [7, 14]: 40 | Plant response rating, Ragweed [7, 15]: 35 | Plant response rating, Ragweed [7, 16]: 45 | Plant response rating, Ragweed [7, 17]: 55 | Ragweed plant response rating [7, 21]: 0 | Plant response rating, Ragweed [7, 22]: 50 | Plant response rating (scale of 0 to 100), Ragweed ([7]; Preemergence, 250 g ai/ha): 10 | Plant response rating, Wheat ([8]; 125 g ai/ha, visual rating on 0 to 100 scale (0 no effect, 100 complete control), approx. 10 days): 40 | Plant response rating, Wheat ([8]; 500 g ai/ha, 0 to 100 scale (0 no effect, 100 complete control)): 70 | Plant response rating, Soybean [9, 14]: 0 | Plant response rating, Soybean [9, 15]: 0 | Plant response rating, Soybean [9, 16]: 0 | Plant response rating, Soybean [9, 17]: 0 | Soybean plant response rating [9, 21]: 0 | Plant response rating, Soybean [9, 22]: 0 | Plant response rating (scale of 0 to 100), Soybean ([9]; Preemergence, 250 g ai/ha): 0 | Plant response rating, Corn [10, 14]: 0 | Plant response rating, Corn [10, 15]: 15 | Plant response rating, Corn [10, 16]: 10 | Plant response rating, Corn [10, 17]: 10 | Corn plant response rating [10, 18]: 10 | Corn plant response rating [10, 21]: 60 | Plant response rating, Corn [10, 22]: 55 | Plant response rating (scale of 0 to 100), Corn ([10]; Preemergence, 250 g ai/ha): 70 | Plant response rating, Ryegrass, Italian [11, 14]: 0 | Plant response rating, Ryegrass, Italian [11, 15]: 0 | Plant response rating, Ryegrass, Italian [11, 16]: 35 | Plant response rating, Ryegrass, Italian [11, 17]: 10 | Ryegrass, Italian plant response rating [11, 21]: 30 | Plant response rating, Ryegrass, Italian [11, 22]: 35 | Plant response rating (scale of 0 to 100), Ryegrass, Italian ([11]; Preemergence, 250 g ai/ha): 30 | Plant response rating, Rice [12]: 20 | Plant response rating, Pigweed [13, 14]: 10 | Plant response rating, Pigweed [13, 15]: 20 | Plant response rating, Pigweed [13, 16]: 25 | Plant response rating, Pigweed [13, 17]: 45 | Pigweed plant response rating [13, 18]: 25 | Pigweed plant response rating [13, 21]: 40 | Plant response rating, Pigweed [13, 22]: 45 | Plant response rating (scale of 0 to 100), Pigweed ([13]; Preemergence, 250 g ai/ha): 55

Reference: patent US10294202B2, “Pyrrolidinones as herbicides” (FMC Corporation, priority 2013, dated 2019)
